Assay results as given in patent publication US20250332096A1, “BEVERAGE FORMULATION AND METHOD OF PROMOTING CELLULAR HYDRATION BY ENHANCING INTRACELLULAR PERMEATION” (Eastpond Laboratories Limited, priority 2024, published 2025).

Key:
[1] = target: T1, human aquaporin 1 (AQP1) (Homo sapiens, UniProt P29972); test: Xenopus oocyte swelling assay, osmotic water permeability; assay type: cell-based; conditions: 0.05% in water
T1 construct: host or cells: Xenopus laevis oocytes (mRNA injection)
T1 sequence (P29972 1-269): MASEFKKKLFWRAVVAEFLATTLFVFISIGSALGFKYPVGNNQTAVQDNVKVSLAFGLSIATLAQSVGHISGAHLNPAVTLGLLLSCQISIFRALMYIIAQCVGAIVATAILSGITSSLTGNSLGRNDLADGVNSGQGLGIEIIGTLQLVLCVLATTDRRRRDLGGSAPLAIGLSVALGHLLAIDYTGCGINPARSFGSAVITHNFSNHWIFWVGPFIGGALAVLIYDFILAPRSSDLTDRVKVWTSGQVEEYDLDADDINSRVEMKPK
Method: They were then kept on ice for another 15 min before ovarectomy was performed. Ovaries were incubated in collagenase (Worthington Type II, 10 mg/ml) in calcium free Barth's solution (CFBS, NaCl 88 mM, KCl 1 mM, MgSO4 0.8 mM, TRIS-HCl 5 mM, NaHCO3 2.4 mM). Following defolliculation, oocytes were rinsed in normal Barth's solution (MBS, NaCl 88 mM, KCl 1 mM, CaCl2 0.4 mM, Ca(NO3)2 0.33 mM, MgSO4 0.8 mM, TRIS-HCl 5 mM, NaHCO3 2.4 mM) before they were transferred to 96-well plates. For nuclear injection of the different DNA's into the oocytes and for cytoplasmic injection of the mRNA encoding human Aquaporin-1 channels into the oocytes, the Roboocyte automated injection and recording system was used. (Human Aquaporine 1 cDNA cloned in expressing vector pGEM-T were purchased from Sino Biological Inc. Transcription to AQP1 mRNA was performed by an Ecocyte cooperation partner lab.) The mRNA injection volume was in the range 20-50 nl at a mRNA concentration of 100 ng/μl. After two to three days of incubation in Barth's solution supplemented with Gentamycin, water uptake of the Xenopus Oocytes through AQP1 channels was tested in a swelling assay using video microscopy. […] Normal frog ringer (NFR, NaCl 90 mM, KCl 2 mM, CaCl2 2 mM, MgCl2 1 mM, HEPES 5 mM, osmolarity 200 mOsm/1) was used as control solution and was prepared freshly on the day of the experiments. […]

[2] = system: C. elegans; test: C. elegans longevity in hydration modified water (Example 5); assay type: in vivo; conditions: for Animals alive, % of initial: 0.1% w/w in nutritive media, USA I water
Method: C. elegans nematodes were grown in petri-type dishes containing normal nutrient liquid media prepared alternatively with USA I water (described in Example 2) lacking any further additive component (control) or the same water supplemented with a parent α-, β-, or γ-cyclodextrin, and/or a bioactive agent, as an active component of cellular hydration. Fifty ±3 worms were transferred to each dish. Each condition was repeated in triplicate. Experiments were repeated for USA II and BP I waters described in Example 2.
• A. Addition of parent α-, β- and γ-cyclodextrins. • B. Addition of L-arginine and nicotinamide. • C. Addition of inclusion complexes of cyclodextrins with L-arginine and nicotinamide.

[3] = Viscosity of test solutions; assay type: physicochemical; conditions: purified water
Method: (§1) 1:1 mol/mol stoichiometry complexes were prepared for the experiment. Nicotinic acid/alpha-CD complex was prepared by dissolving 11.22 g nicotinic acid and 98.63 g alpha-CD (89.66 g on dry basis) in 700 ml purified water. Nicotinamide/alpha-CD complex was prepared by dissolving 5.57 g nicotinamide and 49.3 g alpha-CD (44.4 g on dry basis) in 350 ml purified water and L-arginine/alpha-CD complex was prepared by dissolving 15.18 g L-arginine and 94.26 g alpha-CD (85.69 g on dry basis) in 700 ml purified water. Further, for all the three complexes, the liquid was frozen in dry ice bath and lyophilized. The dry lyophilizate was ground and sieved.
Clarity, pH, conductivity, density, viscosity, turbidity, surface tension and osmolality were determined in solutions prepared with purified water.

[4] = Density measurements of test solutions; assay type: physicochemical; conditions: Tap water
Method: The current study further manifests the density measurements in a cyclodextrin concentration dependent manner.
Water samples used were bottled water and tap water; wherein the tap water comprises the following impurities and properties: Free active chlorine (0.18 mg/1), Chloride (24 mg/1), Iron (6 μg/1), Manganese (2 μg/1), Nitrate (9 mg/1), Nitrite (<0.03 mg/1), Ammonium (<0.04 mg/1), Hardness of water (122 mg/l CaO), Conductivity (442 μS/cm) and pH 8. Purified water was produced by removal of dissolved ions by Merck/Millipore Synergy® Water Purification System at Cyclolab. The water quality produced Type 1 water (18.2 MΩ·cm at 25° C. ultrapure water) from pretreated water.
as §1
Clarity, pH, conductivity, density, viscosity, turbidity, surface tension and osmolality were determined in solutions prepared with purified water. […]
However, it may not be established exactly which ionic species (Mg2+, Ca2+, Na+) causes this perturbation.

water permeation of human-aquaporin-expressed oocytes [1]: highest water permeation
Viscosity (25 C.) ([3]; 0.05%): 0.91 cP
Viscosity (25 C.) ([3]; 0.10%): 0.92 cP
Viscosity (25 C.) ([3]; 1.00%): 0.97 cP
Viscosity (25 C.) ([3]; 2.00%): 1.06 cP
Density (at 22 C.) ([4]; 0.05%): 0.9992 ± 0.007 g/cm³
Density (at 22 C.) ([4]; 0.10%): 0.9994 ± 0.004 g/cm³
Density (at 22 C.) ([4]; 1.00%): 1.002 ± 0.007 g/cm³
Density (at 22 C.) ([4]; 2.00%): 1.009 ± 0.005 g/cm³
SMILES: OC[C@H]1O[C@@H]2O[C@H]3[C@H](O)[C@@H](O)[C@@H](O[C@H]4[C@H](O)[C@@H](O)[C@@H](O[C@H]5[C@H](O)[C@@H](O)[C@@H](O[C@H]6[C@H](O)[C@@H](O)[C@@H](O[C@H]7[C@H](O)[C@@H](O)[C@@H](O[C@H]1[C@H](O)[C@H]2O)O[C@@H]7CO)O[C@@H]6CO)O[C@@H]5CO)O[C@@H]4CO)O[C@@H]3CO [Alpha Cyclodextrin, α-cyclodextrin]
number of animals surviving to old ages ([2]; after day 15, 0.1% w/w): significantly increased
Animals alive, % of initial ([2]; life span 10 days): 100 % of initial
Animals alive, % of initial ([2]; life span 15 days): 20 % of initial
Animals alive, % of initial ([2]; life span 18 days): 2 % of initial
